These results are taken from article PMC6273213, “Novel Triazole-Quinoline Derivatives as Selective Dual Binding Site Acetylcholinesterase Inhibitors” (Molecules, 2016).

Where a name gives a salt, the structure may show the parent alone.

For one assay, the target named is T1, hBChE (Homo sapiens, UniProt P06276).
T1 construct: hBChE EC 3.1.1.8, 50 units mg^−1 from human erythrocytes; purchased Sigma-Aldrich; host or cells: human erythrocytes
The assay can be described thus: biochemical. As to conditions: 100 μM compound; substrate BCThI. The procedure: (§1) Buffer components and all of the chemicals used were all analytical grade materials, and were obtained from Sigma, Merck (Darmstadt, Germany), Synth (São Paulo, Brazil) or Acros (Geel, Belgium). The water used in all of the preparations was purified with a Millipore Milli-Q® system (Millipore, São Paulo, Brazil).
(§2) The ligand assays were carried out in accordance with the literature, albeit with some modifications. Briefly, the assays were carried out using a 96-well microplate with an Elisa microplate reader. To a final volume of 250 µL, each well was filled with: 125 µL of Ellman’s reagent (3 mM in […] phosphate buffer pH 7.4); 50 µL of buffer TRIS (50 mM, pH 8.0); 25 µL of enzyme solution at the final concentration 0.28 U/mL (in […] phosphate buffer pH 7.4); 25 µL of the ACThI (15 mM) for AChE and 25 µL of the BCThI (15 mM) for BChE; and 25 µL of each inhibitor sample (1 mM), final concentration at 100 µM. The microplate was shaken for 10 s followed by reading the absorbance at 412 nm at 30 s intervals for two minutes. The negative control (compound and absence of ACThI) and a positive control (ACThI and absence of compound) were carried out.
(§3) The assays were carried out in duplicate.

The next assay concerns the target T2, hAChE (Homo sapiens, UniProt P22303).
T2 construct: purchased Sigma-Aldrich; host or cells: HEK 293 cells
Put plainly: biochemical. As to conditions: for inhibition at 100 µM: 100 μM compound, substrate ACThI; for inhibition at 100 µM / IC50: human recombinant hAChE; for Mechanism Type hAChE: Lineweaver-Burk plots; for IC50: at least six concentrations, read-out: IC50 ± SEM (μM) hAChE; for Ki: steady-state inhibition constant from replots of reciprocal plots, read-out: Ki ± SEM (μM) hAChE. The procedure:
as §1, §2, §3
IC50 values were independently determined by performing rate measurements for at least six concentrations of the target inhibitor. The nonlinear regression parameters were calculated, and the IC50 was extrapolated.

T2 sequence (P22303 32-614): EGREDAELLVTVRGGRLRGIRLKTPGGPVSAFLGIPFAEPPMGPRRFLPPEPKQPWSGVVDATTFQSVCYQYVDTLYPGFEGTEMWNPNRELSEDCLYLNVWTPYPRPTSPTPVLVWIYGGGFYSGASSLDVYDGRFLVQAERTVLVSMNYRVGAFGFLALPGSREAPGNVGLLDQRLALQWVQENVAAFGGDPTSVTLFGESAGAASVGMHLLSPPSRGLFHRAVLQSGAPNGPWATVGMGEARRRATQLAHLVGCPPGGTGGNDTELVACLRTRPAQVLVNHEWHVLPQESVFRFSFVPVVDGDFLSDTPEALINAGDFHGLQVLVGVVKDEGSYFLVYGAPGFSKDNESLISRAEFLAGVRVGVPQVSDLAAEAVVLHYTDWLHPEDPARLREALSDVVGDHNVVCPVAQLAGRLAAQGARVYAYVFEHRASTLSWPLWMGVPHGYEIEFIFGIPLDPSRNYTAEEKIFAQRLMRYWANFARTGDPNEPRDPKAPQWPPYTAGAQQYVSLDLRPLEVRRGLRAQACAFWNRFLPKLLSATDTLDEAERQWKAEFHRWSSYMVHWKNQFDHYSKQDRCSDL
T1 sequence (P06276 29-602): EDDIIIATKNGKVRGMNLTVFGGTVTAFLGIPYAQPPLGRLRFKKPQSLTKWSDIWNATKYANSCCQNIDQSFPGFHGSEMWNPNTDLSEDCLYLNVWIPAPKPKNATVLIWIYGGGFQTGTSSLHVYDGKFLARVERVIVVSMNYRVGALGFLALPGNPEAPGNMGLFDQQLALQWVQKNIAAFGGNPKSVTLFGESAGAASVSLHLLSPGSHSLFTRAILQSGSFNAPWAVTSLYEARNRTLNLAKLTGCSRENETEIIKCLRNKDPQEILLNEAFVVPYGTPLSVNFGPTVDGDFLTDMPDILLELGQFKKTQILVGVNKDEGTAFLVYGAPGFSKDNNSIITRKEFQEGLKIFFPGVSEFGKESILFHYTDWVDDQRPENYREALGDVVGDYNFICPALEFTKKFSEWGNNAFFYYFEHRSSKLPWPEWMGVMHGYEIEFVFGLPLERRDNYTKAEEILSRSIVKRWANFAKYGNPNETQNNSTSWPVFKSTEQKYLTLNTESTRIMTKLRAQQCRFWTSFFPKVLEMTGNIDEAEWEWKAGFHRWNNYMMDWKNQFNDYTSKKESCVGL

Usually inhibition stands for the change of the read-out against control, counted positive when it falls. Consider `O=C1C(=Cc2ccc(-c3cn(-c4ccnc5ccccc45)nn3)cc2)Cc2cc3c(cc21)OCO3` [3b, (E)-5,6-Methilenedioxy-2-(4-(1-(quinolin-4-yl)-1H-1,2,3-triazol-4-yl)benzylidene)-2,3-dihydro-1H-inden-1-one], for which the inhibition at 100 µM stood at 5.2% at hBChE and 0% at hAChE.
`COc1cc2c(cc1OC)C(=O)C(CC1CCN(Cc3ccccc3)CC1)C2` (stereo not shown) [Donepezil, donepezil hydrochloride monohydrate, reference compound] displayed an inhibition at 100 µM on hBChE of 11.1%.
For orientation: IC50 means the concentration that inhibits the measured activity by half. What is called Ki is a measure of affinity in units of concentration, obtained from inhibition or displacement. The compound `COc1ccc2c(c1)C/C(=C\c1ccc(-c3cn(-c4ccnc5ccccc45)nn3)cc1)C2=O` [3g, (E)-5-Methoxy-2-(4-(1-(quinolin-4-yl)-1H-1,2,3-triazol-4-yl)benzylidene)-2,3-dihydro-1H-inden-1-one] returned an inhibition at 100 µM on hBChE of 0.2%. Moreover, on hAChE, the inhibition at 100 µM amounted to 48.1%, the “Mechanism Type hAChE” value is reported as “mixed-type”, the IC50 stood at 114 ± 10 µM and the inhibition constant Ki worked out at 220 ± 60 µM.
In the same order, the values of `COc1ccc2c(c1)C(=O)/C(=C/c1ccc(-c3cn(-c4ccnc5ccccc45)nn3)cc1)C2` [3h, (E)-6-Methoxy-2-(4-(1-(quinolin-4-yl)-1H-1,2,3-triazol-4-yl)benzylidene)-2,3-dihydro-1H-inden-1-one] are 0%, 55.7%, “mixed-type”, 109 µM and 245 ± 70 µM.
As for `COc1cc2c(cc1Cl)C/C(=C\c1ccc(-c3cn(-c4ccnc5ccccc45)nn3)cc1)C2=O` [3c, (E)-5-Chloro-6-methoxy-2-(4-(1-(quinolin-4-yl)-1H-1,2,3-triazol-4-yl)benzylidene)-2,3-dihydro-1H-inden-1-one], the inhibition at 100 µM came to 6.2% against hBChE and 5.4% at hAChE.
The corresponding values for `Cc1ccc2c(c1)C(=O)/C(=C/c1ccc(-c3cn(-c4ccnc5ccccc45)nn3)cc1)C2` [3d, (E)-6-Methyl-2-(4-(1-(quinolin-4-yl)-1H-1,2,3-triazol-4-yl)benzylidene)-2,3-dihydro-1H-inden-1-one] are 0% and 9.1%.
At hBChE, `O=C1/C(=C/c2ccc(-c3cn(-c4ccnc5ccccc45)nn3)cc2)Cc2ccc(Cl)cc21` [3e, (E)-6-Chloro-2-(4-(1-(quinolin-4-yl)-1H-1,2,3-triazol-4-yl)benzylidene)-2,3-dihydro-1H-inden-1-one] registered an inhibition at 100 µM of 0%. In addition, at hAChE, the inhibition at 100 µM turned out to be 37.7%, the IC50 stood at 147 ± 15 µM and the Ki came to 530 ± 150 µM.
In the same order, the values of `COc1cc2c(cc1OC)C(=O)/C(=C/c1ccc(-c3cn(-c4ccnc5ccccc45)nn3)cc1)C2` [3a, (E)-5,6-Dimethoxy-2-(4-(1-(quinolin-4-yl)-1H-1,2,3-triazol-4-yl)benzylidene)-2,3-dihydro-1H-inden-1-one] are 0%, 29%, 128 ± 25 µM and 185 ± 29 µM.
